Reference: patent US12440479B2, “Prevention or treatment of chronic organ injury” (GEORG-AUGUST-UNIVERSITAET GOETTINGEN, STIFTUNG …, priority 2018, dated 2025)

Legend:
UUO-challenged kidneys = assay: Unilateral ureteral obstruction (UUO): tubular injury and interstitial fibrosis (histology, immunostaining); format: in vivo, mice
[1] = system: intrarenal ARNT/ALK3 signaling; assay: UUO kidneys: ARNT/ALK3 expression and pSmad1/5/8 (qRT-PCR, immunoblotting, immunostaining); format: in vivo, mice; settings: for canonical BMP signaling responses / intrarenal ARNT and ALK3 transcription: FK506 0.2 mg/kg or GPI-1046 30 mg/kg orally per day starting three days after UUO; for intrarenal NFAT signaling: picomolar FK506 or GPI-1046
Method: Eight to twelve weeks-old C57/6, yGTcre−;Yy1fl/fl and yGTcre+;Yy1fl/fl mice were anesthetized with isoflurane inhalation (2-3%), analgesia was performed by subcutaneous injection of 0.1 mg/kg body weight per day Buprenorphine. The ureter was separated from the surrounding tissues and two ligatures were placed about 5 mm apart in upper two-thirds of the left ureter to obtain reliable obstruction. Mice were sacrificed 3, 7 or 10 days after ureteral obstruction for further analyses, as described before (53, 153-155).
Paraffin-embedded specimens were deparaffinized in xylene and rehydrated in ethanol containing distilled water. Tissue sections were stained using polyclonal antibodies against ALK3 (sc-20736, Santa Cruz Biotechnology, Dallas, USA) and ARNT (3718S, Cell Signaling, Danvers, USA), peroxidase labeling was performed using Vectastain Universal Elite ABC Kit (Vector Laboratories, Burlingame, USA) according to the manufacturer's protocol. AEC Substrate-Chromogen (Dako, Glostrup, Denmark) was applied for peroxidase visualization according to the manufacturer's protocol. Nuclear counterstain was performed by using Mayer's Hematoxylin Solution (Sigma, St. Louis, USA).
For immunofluorescent staining, primary antibodies against ARNT (5537S, Cell Signaling, Danvers, USA), Hif1α (H6535, Sigma, St. Louis, USA), Hif2α (ab20654, Abcam Biochemicals, Cambridge, UK), phosphorylated Smad1/5/8 (pSmad1/5/8, sc-12353, Santa Cruz Biotechnology, Dallas, USA), CD45 (550539, BD Biosciences, Franklin Lakes, USA), Collagen-1 (ab34710, Abcam Biochemicals, Cambridge, UK), α-smooth muscle actin (aSMA, A5228, Sigma, St. Louis, USA), FKBP12 (ab2918, Abcam Biochemicals, Cambridge, UK) and YY1 (ab12132, Abcam Biochemicals, Cambridge, UK) were used, secondary antibodies were labeled with Alexa Fluor 488 or 568 (Life Technologies, Carlsbad, USA). Renal basement membranes were stained with antibodies against Collagen-4 (1340-30, SouthernBiotech, Birmingham, USA), cardiac cell membranes with antibodies against WGA (W11261, Life Technologies, Carlsbad, USA). Nuclear staining was performed using 4′,6-diamidino-2-phenylindole (DAPI, Vector Laboratories, Burlingame, USA). Relative areas positive for Collagen-1, aSMA, tubular nuclei positive for ARNT and pSmad1/5/8 were quantified in 10 high power fields per section at 400× magnification.
For SYBR-based real-time PCR, cDNA synthesis was performed by using DNase I digestion (Invitrogen, Carlsbad, USA) and SuperScript II Reverse Transcriptase (Invitrogen, Carlsbad, USA) according to the manufacturer's protocol. 1 μL of reverse-transcribed cDNA was added to the reaction mixture containing the primer pair (200 nmol/L each) and diluted 2× Fast SYBR Green Master Mix (Applied Biosystems, Carlsbad, USA) in a final volume of 20 μL for each PCR reaction. The real-time PCR reactions were performed in a 96-well reaction plate using the StepOne Plus Real-Time System (Applied Biosystems, Carlsbad, USA) and were done in triplicates. An initiation step at 95° C. for 20 seconds was followed by 40 cycles at 95° C. for 3 to seconds and 60° C. for 30 seconds, with one cycle of dissociation at 95° C. for 15 seconds, 60° C. for 60 seconds, and 95° C. for 15 seconds. The intercalation of SYBR Green dye and its fluorescent signal is directly proportional to the amount of amplified DNA and was transformed into the cycle threshold (Ct). For normalization, the Ct values of the housekeeping genes Gapdh and Actb were subtracted from the Ct values of the gene of interest to generate the dCt values. The relative expression levels were calculated using the equation 2^−ddCt.
Tissue and cells were homogenized in NP40 lysis buffer (Life technologies, Carlsbad, USA) supplemented with protease inhibitor cocktail (Roche, Basel, Switzerland).

ARNT = ARNT mRNA expression levels in organs of treated mice (qRT-PCR); format: in vivo; settings: FK506 0.2 mg/kg or GPI-1046 30 mg/kg orally per day; kidney, heart, brain, spinal cord, skin, liver, lung and intestine
Method: Solutions were changed once a day and mice were sacrificed at indicated time points.
Mice were injected subcutaneously with 10 mg/kg body weight per day GPI-1046 (Santa Cruz Biotechnology, Dallas, USA) in DMSO once daily starting one day prior of surgery, control mice received equivalent volume of vehicle DMSO. For oral administration, GPI-1046 stock solution was diluted in glucose-water (5%) and orally applied on the basis of an average drinking volume of 3 mL and a body weight of 20 g per mouse. Three days after challenging with UUO, mice were treated orally with either vehicle buffer glucose (5%) or 30 mg/kg body weight per day GPI-1046, respectively.
For SYBR-based real-time PCR, cDNA synthesis was performed by using DNase I digestion (Invitrogen, Carlsbad, USA) and SuperScript II Reverse Transcriptase (Invitrogen, Carlsbad, USA) according to the manufacturer's protocol. 1 μL of reverse-transcribed cDNA was added to the reaction mixture containing the primer pair (200 nmol/L each) and diluted 2× Fast SYBR Green Master Mix (Applied Biosystems, Carlsbad, USA) in a final volume of 20 μL for each PCR reaction. The real-time PCR reactions were performed in a 96-well reaction plate using the StepOne Plus Real-Time System (Applied Biosystems, Carlsbad, USA) and were done in triplicates. […] The relative expression levels were calculated using the equation 2^−ddCt.

functional parenchyma = assay: Streptozotocin (STZ) model of diabetic nephropathy; format: in vivo; settings: STZ mice; FK506 0.2 mg/kg or GPI-1046 10 mg/kg subcutaneously per day
Method: Based on these observations, we next hypothesized that FK506 and small molecule FKBP12 inhibitor GPI-1046 could equally protect functional parenchyma in an experimental models of diabetic nephropathy (168). Diabetes was induced in 8 to 12 weeks old C57BL/6N mice by a single intraperitoneal injection of streptozotocin (STZ) at 200 mg/kg in 10 mmol/L citrate buffer (pH 4.5), citrate buffer alone was injected as control (168). FK506 (0.2 mg/kg body weight) and GPI-146 (10 mg/kg body weight) in DMSO once daily were applied by subcutaneous injections starting one day prior of STZ administration. At day 3 after STZ injection, diabetes was confirmed by urine dipstick. Mice were sacrificed 8 weeks after STZ injection for further analyses.

[2] = system: proximal ALK3 promoter (CACGTG E-box motif); assay: ALK3 ChIP-PCR after Arnt pull-down; format: cell-based, mouse; settings: TECs upon exposure to FK506
Method: DNA and protein interaction was performed with the OneDay ChIP Kit (Diagenode, Seraing, Belgium) according to the manufacturer's instructions. 2×10^7 MCT cells have been used for each ChIP reaction. Cell lysates were sonicated using an ultrasonic processor S-4000 (Misonix, Farmingdale, USA). Immunoprecipitation was performed with a ChIP grade antibody against Yy1 (ab12132, Abcam Biochemicals, Cambridge, UK) and Arnt (3718, Cell Signaling, Danvers, USA). Enriched DNA was analyzed by qRT-PCR with EpiTect ChIP qPCR primers for genomic Arnt (Qiagen, Hilden, Germany), oligonucleotide sequences for genomic Alk3 are listed in Table 10.

[3] = UUO, FK506 0.2 mg/kg or GPI-1046 30 mg/kg orally per day starting three days after UUO
[4] = UUO, FK506 0.02-5.0 mg/kg or CsA 10 mg/kg orally per day starting one day prior to UUO
[5] = UUO, VMO 12.5 mg/kg intraperitoneally or FK506 0.2 mg/kg orally per day
[6] = UUO, intrarenal ARNT induction depleted (Arnt-VMO)

Row | SMILES | tubular injury and renal fibrogenesis (UUO-challenged kidneys; UUO, 10 mg/kg subcutaneously per day starting one day prior) | tubular injury and renal fibrogenesis (UUO-challenged kidneys; [3]) | intrarenal ARNT and ALK3 transcription, BMP signaling responses ([1]; UUO, 10 mg/kg subcutaneously per day starting one day prior, compared to FK506) | canonical BMP signaling responses ([1]; UUO) | intrarenal ARNT and ALK3 transcription ([1]; UUO) | intrarenal NFAT signaling ([1]; UUO) | transcriptional ARNT induction in organs (ARNT) | protection of functional parenchyma from chronic injury (functional parenchyma) | effect of FK506 on ALK3 expression, nuclear pSmad1/5/8, tubular injury or interstitial fibrosis (UUO-challenged kidneys; UUO mice that had also received Fkbp12-VMO or Yy1-VMO) | effect of FK506 on BMP signaling, tubular injury, renal fibrogenesis, ALK3 transcription (UUO-challenged kidneys; UUO, mice with YY1 depleted in TECs (yGTcre+;Yy1fl/fl), FK506 0.2 mg/kg orally per day) | chronic tubular injury (UUO-challenged kidneys; [4]) | interstitial fibrosis (UUO-challenged kidneys; [4]) | tubular injury and tubulointerstitial fibrosis (UUO-challenged kidneys; [5]) | protection of kidneys from tubular injury and progressive fibrotic disease (UUO-challenged kidneys; [6]) | renal ARNT expression ([1]; UUO mice, low-dose FK506 or CsA) | nuclear pSmad1/5/8 ([1]; UUO-challenged murine kidneys) | expression of ALK3 ([1]; UUO-challenged murine kidneys, treatment starting one day prior) | intrarenal ARNT, ALK3 and nuclear pSmad1/5/8 immunostaining [1, 5] | intrarenal ALK3-dependent BMP signaling responses [1, 6] | ARNT binding to CACGTG motif within the proximal ALK3 promoter [2]
1 | CCC(C)(C)C(=O)C(=O)N1CCC[C@H]1C(=O)OCCCc1cccnc1 [GPI-1046, 3-(3-pyridyl)-1-propyl-(2S)-1-(3,3-dimethyl-1,2-dioxopentyl)-2-pyrrolidinedine carboxylate] | protected | attenuated | equally induced | enhanced | equally effective | not affecting | transcriptional ARNT induction was present | equally effective |  |  |  |  |  |  |  |  |  |  |  | 
2 | C=CC[C@@H]1/C=C(\C)C[C@H](C)C[C@H](OC)[C@H]2O[C@@](O)(C(=O)C(=O)N3CCCC[C@H]3C(=O)O[C@H](/C(C)=C/[C@@H]3CC[C@@H](O)[C@H](OC)C3)[C@H](C)[C@@H](O)CC1=O)[C@H](C)C[C@@H]2OC [FK506, tacrolimus] |  | attenuated |  | enhanced | equally effective | not affecting | transcriptional ARNT induction was present | equally effective | no additive effects | no additive effects | reduced | reduced | attenuated | failure of FK506 to protect | significantly increased | nuclear pSmad1/5/8 accumulation | specifically induced | equally induced | failed to induce | significantly increased
